Structures can show the parent of a compound that is named as a salt.
Target: T1, EGFR LRCS (BaF3-LRCS cell line) (Homo sapiens, UniProt P00533, C797S/L858R)
T1 construct: host or cells: BaF3 (BaF3-LRCS engineered line, kept under puromycin)
Test: HTRF Phospho EGFR LRCS assay (cellular)
Type: cell-based
Details: BaF3-LRCS cells, 4 hours incubation with compound, Phospho-EGFR HTRF readout
Protocol: HTRF Phospho EGFR LRCS Assay (Cellular)
BaF3-LRCS cell line were obtained from Crownbio (San Diego, CA, USA). Cells were maintained at 37° C., 5% CO2 in RPMI ATCC (Gibco 31870)+2 mM Glutamine+0.5 μg/ml Puromycin supplemented with 10% fetal bovine serum (FBS) (Gibco).
Cells are transferred as above to Greiner Bio-One, Nr. 784-08 micro-titerplate at 20000 cells/well in 12.5 μl of growth medium/well after the plates had been pre-filled with 12.5 nl of DMSO solutions of the to be tested compounds (in dose response) or DMSO only. After spinning the plates at 300×g for 30 seconds the cells were incubated for 4 hours at 37 C, 5% CO2, 95% humidity. The cells were lysed by adding to the compound mix 4 μl/well of the supplemented lysis buffer (Cis-bio, Phospho-EGFR HTRF kit, 64EG1PEH), followed by incubation for 30 min at room temperature with shaking (400 rpm). The plates were then frozen and stored overnight at −80° C. On the next day and after thawing the plates, 4 μl of a mixture of anti-Phospho-EGFR Cryptate and of anti-Phospho-EGFR-d2 antibody solutions prepared in the supplied detection buffer was added to each well. The lidded plates were then incubated for 4 h at room temperature before reading the fluorescence emission at 616 and 665 nm using an Envision reader (Perkin Elmer). Data was analyzed in similar fashion as above using the normalized ratio of the 665 to 616 signals multiplied by 10000.

T1 sequence (P00533 25-1210 C797S/L858R): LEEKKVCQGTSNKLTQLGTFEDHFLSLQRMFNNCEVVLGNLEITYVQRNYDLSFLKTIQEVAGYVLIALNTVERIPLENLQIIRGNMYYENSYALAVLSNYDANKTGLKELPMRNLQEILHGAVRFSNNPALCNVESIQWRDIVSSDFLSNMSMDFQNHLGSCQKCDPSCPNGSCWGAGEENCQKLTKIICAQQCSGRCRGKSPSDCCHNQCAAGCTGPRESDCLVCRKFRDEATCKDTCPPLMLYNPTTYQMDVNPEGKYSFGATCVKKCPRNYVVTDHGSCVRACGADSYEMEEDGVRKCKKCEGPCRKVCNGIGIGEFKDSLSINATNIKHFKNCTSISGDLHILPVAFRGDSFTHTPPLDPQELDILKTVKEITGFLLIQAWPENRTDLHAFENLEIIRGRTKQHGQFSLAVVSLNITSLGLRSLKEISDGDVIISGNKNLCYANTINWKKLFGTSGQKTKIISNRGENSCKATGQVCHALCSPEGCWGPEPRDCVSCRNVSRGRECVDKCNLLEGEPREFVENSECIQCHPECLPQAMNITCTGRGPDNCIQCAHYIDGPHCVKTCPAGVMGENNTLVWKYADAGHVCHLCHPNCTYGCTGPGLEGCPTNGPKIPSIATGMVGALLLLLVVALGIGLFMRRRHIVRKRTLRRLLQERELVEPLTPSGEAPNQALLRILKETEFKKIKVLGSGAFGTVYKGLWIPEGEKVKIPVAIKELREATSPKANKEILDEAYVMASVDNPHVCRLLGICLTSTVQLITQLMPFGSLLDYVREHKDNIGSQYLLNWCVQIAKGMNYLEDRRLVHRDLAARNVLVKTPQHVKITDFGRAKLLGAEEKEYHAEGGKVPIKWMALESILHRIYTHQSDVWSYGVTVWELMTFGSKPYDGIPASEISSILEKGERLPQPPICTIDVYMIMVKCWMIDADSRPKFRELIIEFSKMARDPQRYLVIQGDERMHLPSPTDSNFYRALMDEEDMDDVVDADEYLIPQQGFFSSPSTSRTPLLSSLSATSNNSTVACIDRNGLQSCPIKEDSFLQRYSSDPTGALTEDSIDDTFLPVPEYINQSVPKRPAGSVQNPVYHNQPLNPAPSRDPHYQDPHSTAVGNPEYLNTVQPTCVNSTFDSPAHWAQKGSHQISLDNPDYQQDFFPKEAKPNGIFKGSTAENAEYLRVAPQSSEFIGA

SMILES | IC50 [nM]
CNCCc1ccc(-c2cc(C(F)F)c3cn(C(C(=O)Nc4nccs4)c4ncn5c4C[C@@H](F)C5)nc3c2C)cc1 (stereo partly drawn) [Example 3, 2-[4-(Difluoromethyl)-7-methyl-6-[4-[2-(methylamino)ethyl]phenyl]indazol-2-yl]-2-[(6R)-6-fluoro-6,7-dihydro-5H-pyrrolo[1,2-c]imidazol-1-yl]-N-thiazol-2-yl-acetamide Hydrochloride] | 18
Cc1c(-c2ccc(CCN(C)C)cc2)cc(C(F)F)c2cn(C(C(=O)Nc3nccs3)c3ncn4c3C[C@@H](F)C4)nc12 (stereo partly drawn) [Example 4, 2-[4-(Difluoromethyl)-6-[4-[2-(dimethylamino)ethyl]phenyl]-7-methyl-indazol-2-yl]-2-[(6R)-6-fluoro-6,7-dihydro-5H-pyrrolo[1,2-c]imidazol-1-yl]-N-thiazol-2-yl-acetamide] | 11
Cc1c(-c2ccc(OCCN3CCC(CO)CC3)cc2)cc(C(F)F)c2cn(C(C(=O)Nc3nccs3)c3ncn4c3C[C@@H](F)C4)nc12 (stereo partly drawn) [Example 5, 2-[4-(Difluoromethyl)-6-[4-[2-[4-(hydroxymethyl)-1-piperidyl]ethoxy]phenyl]-7-methyl-indazol-2-yl]-2-[(6R)-6-fluoro-6,7-dihydro-5H-pyrrolo[1,2-c]imidazol-1-yl]-N-thiazol-2-yl-acetamide] | 19
Cc1c(-c2ccc(N3CCOCC3)cc2)cc(C(F)F)c2cn(C(C(=O)Nc3nccs3)c3ncn4c3CCC4)nc12 (centres unmarked) [Example 8, 2-[4-(Difluoromethyl)-7-methyl-6-(4-morpholinophenyl)indazol-2-yl]-2-(6,7-dihydro-5H-pyrrolo[1,2-c]imidazol-1-yl)-N-thiazol-2-yl-acetamide] | 17
Cc1c(-c2ccc(CCN3CCC(CO)CC3)cc2)cc(C(F)F)c2cn(C(C(=O)Nc3nccs3)c3ncn4c3C[C@@H](F)C4)nc12 (stereo partly drawn) [Example 9, 2-[4-(Difluoromethyl)-6-[4-[2-[4-(hydroxymethyl)-1-piperidyl]ethyl]phenyl]-7-methyl-indazol-2-yl]-2-[(6R)-6-fluoro-6,7-dihydro-5H-pyrrolo[1,2-c]imidazol-1-yl]-N-thiazol-2-yl-acetamide] | 27
Cc1c(-c2ccc(CCN3CCC(C(C)O)CC3)cc2)cc(C(F)F)c2cn(C(C(=O)Nc3nccs3)c3ncn4c3C[C@@H](F)C4)nc12 (stereo partly drawn) [Example 14, 2-[4-(Difluoromethyl)-6-[4-[2-[4-(1-hydroxyethyl)-1-piperidyl]ethyl]phenyl]-7-methyl-indazol-2-yl]-2-[(6R)-6-fluoro-6,7-dihydro-5H-pyrrolo[1,2-c]imidazol-1-yl]-N-thiazol-2-yl-acetamide] | 16
Cc1c(-c2ccc(C3CC(CN4CCC(CO)CC4)C3)cc2)cc(C(F)F)c2cn(C(C(=O)Nc3nccs3)c3ncn4c3C[C@@H](F)C4)nc12 (stereo partly drawn) [Example 15, 2-[4-(Difluoromethyl)-6-[4-[3-[[4-(hydroxymethyl)-1-piperidyl]methyl]cyclobutyl]phenyl]-7-methyl-indazol-2-yl]-2-[(6R)-6-fluoro-6,7-dihydro-5H-pyrrolo[1,2-c]imidazol-1-yl]-N-thiazol-2-yl-acetamide] | 24
Cc1c(-c2ccc(C3CC(CN4CCC(O)CC4)C3)cc2)cc(C(F)F)c2cn(C(C(=O)Nc3nccs3)c3ncn4c3C[C@@H](F)C4)nc12 (stereo partly drawn) [Example 17, 2-[4-(Difluoromethyl)-6-[4-[3-[(4-hydroxy-1-piperidyl)methyl]cyclobutyl]phenyl]-7-methyl-indazol-2-yl]-2-[(6R)-6-fluoro-6,7-dihydro-5H-pyrrolo[1,2-c]imidazol-1-yl]-N-thiazol-2-yl-acetamide] | 30
Cc1c(-c2ccc(OCCN3CCOCC3)cc2)cc(C(F)F)c2cn(C(C(=O)Nc3nccs3)c3ncn4c3C[C@@H](F)C4)nc12 (stereo partly drawn) [Example 18, 2-[4-(Difluoromethyl)-7-methyl-6-[4-(2-morpholinoethoxy)phenyl]indazol-2-yl]-2-[(6R)-6-fluoro-6,7-dihydro-5H-pyrrolo[1,2-c]imidazol-1-yl]-N-thiazol-2-yl-acetamide] | 28

More lines, now with the values ahead:

IC50 [nM] | SMILES
15 | CCN1CC[C@@H](c2ccc(-c3cc(C(F)F)c4cn(C(C(=O)Nc5nccs5)c5ncn6c5C[C@@H](F)C6)nc4c3C)cc2)[C@H](F)C1 (single isomer, unassigned) [Example 2, 2-[4-(Difluoromethyl)-6-[4-[(3S,4S)-1-ethyl-3-fluoro-4-piperidyl]phenyl]-7-methyl-indazol-2-yl]-2-[(6R)-6-fluoro-6,7-dihydro-5H-pyrrolo[1,2-c]imidazol-1-yl]-N-thiazol-2-yl-acetamide or 2-[4-(Difluoromethyl)-6-[4-[(3R,4R)-1-ethyl-3-fluoro-4-piperidyl]phenyl]-7-methyl-indazol-2-yl]-2-[(6R)-6-fluoro-6,7-dihydro-5H-pyrrolo[1,2-c]imidazol-1-yl]-N-thiazol-2-yl-acetamide]
8 | Cc1c(-c2ccc(N3CCOCC3)cc2)cc(C(F)F)c2cn(C(C(=O)Nc3nccs3)c3ncn4c3C[C@@H](F)C4)nc12 (stereo partly drawn) [Example 1, 2-[4-(Difluoromethyl)-7-methyl-6-(4-morpholinophenyl)indazol-2-yl]-2-[(6R)-6-fluoro-6,7-dihydro-5H-pyrrolo[1,2-c]imidazol-1-yl]-N-thiazol-2-yl-acetamide]
16 | Cc1c(-c2ccc(CN3CCC(CO)CC3)cc2)cc(C(F)F)c2cn(C(C(=O)Nc3nccs3)c3ncn4c3C[C@@H](F)C4)nc12 (stereo partly drawn) [Example 6, 2-[4-(Difluoromethyl)-6-[4-[[4-(hydroxymethyl)-1-piperidyl]methyl]phenyl]-7-methyl-indazol-2-yl]-2-[(6R)-6-fluoro-6,7-dihydro-5H-pyrrolo[1,2-c]imidazol-1-yl]-N-thiazol-2-yl-acetamide]
14 | Cc1c(-c2ccc(CN3CCC(O)CC3)cc2)cc(C(F)F)c2cn(C(C(=O)Nc3nccs3)c3ncn4c3C[C@@H](F)C4)nc12 (stereo partly drawn) [Example 7, 2-[4-(Difluoromethyl)-6-[4-[(4-hydroxy-1-piperidyl)methyl]phenyl]-7-methyl-indazol-2-yl]-2-[(6R)-6-fluoro-6,7-dihydro-5H-pyrrolo[1,2-c]imidazol-1-yl]-N-thiazol-2-yl-acetamide]
17 | Cc1c(-c2ccc(OCCN3CCC(O)CC3)cc2)cc(C(F)F)c2cn(C(C(=O)Nc3nccs3)c3ncn4c3C[C@@H](F)C4)nc12 (stereo partly drawn) [Example 10, 2-[4-(Difluoromethyl)-6-[4-[2-(4-hydroxy-1-piperidyl)ethoxy]phenyl]-7-methyl-indazol-2-yl]-2-[(6R)-6-fluoro-6,7-dihydro-5H-pyrrolo[1,2-c]imidazol-1-yl]-N-thiazol-2-yl-acetamide]
10 | Cc1c(-c2ccc(N3CCC(O)CC3)cc2)cc(C(F)F)c2cn(C(C(=O)Nc3nccs3)c3ncn4c3C[C@@H](F)C4)nc12 (stereo partly drawn) [Example 11, 2-[4-(Difluoromethyl)-6-[4-(4-hydroxy-1-piperidyl)phenyl]-7-methyl-indazol-2-yl]-2-[(6R)-6-fluoro-6,7-dihydro-5H-pyrrolo[1,2-c]imidazol-1-yl]-N-thiazol-2-yl-acetamide]
18 | Cc1c(-c2ccc(CN3CCC(C(C)O)CC3)cc2)cc(C(F)F)c2cn(C(C(=O)Nc3nccs3)c3ncn4c3C[C@@H](F)C4)nc12 (stereo partly drawn) [Example 12, 2-[4-(Difluoromethyl)-6-[4-[[4-(1-hydroxyethyl)-1-piperidyl]methyl]phenyl]-7-methyl-indazol-2-yl]-2-[(6R)-6-fluoro-6,7-dihydro-5H-pyrrolo[1,2-c]imidazol-1-yl]-N-thiazol-2-yl-acetamide]
17 | Cc1c(-c2ccc(N3CCN4CCC3C4)cc2)cc(C(F)F)c2cn(C(C(=O)Nc3nccs3)c3ncn4c3C[C@@H](F)C4)nc12 (stereo partly drawn) [Example 13, 2-[6-[4-(1,4-Diazabicyclo[3.2.1]octan-4-yl)phenyl]-4-(difluoromethyl)-7-methyl-indazol-2-yl]-2-[(6R)-6-fluoro-6,7-dihydro-5H-pyrrolo[1,2-c]imidazol-1-yl]-N-thiazol-2-yl-acetamide]
16 | Cc1c(-c2ccc(N3CCC(S(C)(=O)=O)CC3)cc2)cc(C(F)F)c2cn(C(C(=O)Nc3nccs3)c3ncn4c3C[C@@H](F)C4)nc12 (stereo partly drawn) [Example 16, 2-[4-(Difluoromethyl)-7-methyl-6-[4-(4-methylsulfonyl-1-piperidyl)phenyl]indazol-2-yl]-2-[(6R)-6-fluoro-6,7-dihydro-5H-pyrrolo[1,2-c]imidazol-1-yl]-N-thiazol-2-yl-acetamide]
16 | Cc1c(-c2ccc(N3CC(CN4CCC(CO)CC4)C3)cc2)cc(C(F)F)c2cn(C(C(=O)Nc3nccs3)c3ncn4c3C[C@@H](F)C4)nc12 (stereo partly drawn) [Example 19, 2-(4-(Difluoromethyl)-6-(4-(3-((4-(hydroxymethyl)piperidin-1-yl)methyl)azetidin-1-yl)phenyl)-7-methyl-211-indazol-2-yl)-2-((R)-6-fluoro-6,7-dihydro-5H-pyrrolo[1,2-c]imidazol-1-yl)-N-(thiazol-2-yl)acetamide]
12 | Cc1c(-c2ccc(N3CCN(CCO)CC3)cc2)cc(C(F)F)c2cn(C(C(=O)Nc3nccs3)c3ncn4c3C[C@@H](F)C4)nc12 (stereo partly drawn) [Example 20, 2-[4-(Difluoromethyl)-6-[4-[4-(2-hydroxyethyl)piperazin-1-yl]phenyl]-7-methyl-indazol-2-yl]-2-[(6R)-6-fluoro-6,7-dihydro-5H-pyrrolo[1,2-c]imidazol-1-yl]-N-thiazol-2-yl-acetamide]

From patent US20240018154A1, “NEW INDAZOLE DERIVATIVES” (Hoffmann-La Roche Inc., priority 2020, published 2024)
